Test results taken from ChEMBL document CHEMBL4665808, “Krisynomycins, Imipenem Potentiators against Methicillin-Resistant Staphylococcus aureus, Produced by Streptomyces canus” (2020).
Converted amounts (≈) assume the structure as drawn.

How the values were obtained:
Type in all cases: functional
Staphylococcus aureus [1] = assay: Potentiation of imipenem-induced activity antibacterial against methicillin-resistance Staphylococcus aureus MB5393 in presence of 1 ug/ml imipenem by broth dilution method
Staphylococcus aureus [2] = assay: Potentiation of imipenem-induced activity antibacterial against methicillin-resistance Staphylococcus aureus MB5393 in presence of 4 ug/ml imipenem by broth dilution method
Staphylococcus aureus [3] = assay: Antibacterial against methicillin-resistance Staphylococcus aureus MB5393 by broth dilution method
Staphylococcus aureus [4] = assay: Potentiation of imipenem-induced activity antibacterial against methicillin-resistance Staphylococcus aureus MB5393 in presence of 2 ug/ml imipenem by broth dilution method

| Compound | MIC (Staphylococcus aureus [1]) | MIC (Staphylococcus aureus [2]) | MIC (Staphylococcus aureus [3]) | MIC (Staphylococcus aureus [4]) |
| --- | --- | --- | --- | --- |
| CC(C)=CCc1cccc2[nH]cc(C[C@@H]3NC(=O)[C@H](Cc4c[nH]c5ccccc45)NC(=O)[C@@H]4CCCN4C(=O)[C@@H](CS(=O)(=O)O)NC(=O)[C@@H](NC(=O)[C@@H](NC(=O)[C@H](C)NC(=O)CC(=O)O)C(C)C)COC(=O)[C@H](CO)NC(=O)[C@@H](CC(C)C)NC(=O)[C@@H](C(C)C)NC3=O)c12 | 16 µg/mL | 8 µg/mL | > 128 µg/mL | 16 µg/mL |
| CC(C)=CCc1cccc2[nH]cc(C[C@@H]3NC(=O)[C@H](Cc4c[nH]c5c(Cl)cccc45)NC(=O)[C@@H]4CCCN4C(=O)[C@@H](CS(=O)(=O)O)NC(=O)[C@@H](NC(=O)[C@@H](NC(=O)[C@H](C)NC(=O)CC(=O)O)C(C)C)COC(=O)[C@H](CO)NC(=O)[C@@H](CC(C)C)NC(=O)[C@@H](C(C)C)NC3=O)c12 | 4 µg/mL | 2 µg/mL | > 128 µg/mL | 4 µg/mL |
| CC(C)=CCc1ccc(Cl)c2[nH]cc(C[C@@H]3NC(=O)[C@H](Cc4c[nH]c5c(Cl)cccc45)NC(=O)[C@@H]4CCCN4C(=O)[C@@H](CS(=O)(=O)O)NC(=O)[C@@H](NC(=O)[C@@H](NC(=O)[C@H](C)NC(=O)CC(=O)O)C(C)C)COC(=O)[C@H](CO)NC(=O)[C@@H](CC(C)C)NC(=O)[C@@H](C(C)C)NC3=O)c12 | 0.5 µg/mL | 0.25 µg/mL | 16 µg/mL (≈ 11.4 µM) | 0.5 µg/mL |
| C[C@@H](O)[C@H]1C(=O)N2C(C(=O)O)=C(SCCNC=N)C[C@H]12 [IMIPENEM ANHYDROUS] | – | – | 16 µg/mL (≈ 53.4 µM) | – |
